This note sets out measurements from ChEMBL document CHEMBL4138164, “Thieno[2,3-b]pyridine derivatives are potent anti-platelet drugs, inhibiting platelet activation, aggregation and showing synergy with aspirin” (Eur J Med Chem, 2018).

Structures are written as SMILES. Activity calls are given as the source filed them. No cut-off for these calls is given here.

In data set [1] the target is P2Y purinoceptor 12 (Homo sapiens) (UniProt Q9H244). The experiment in a line: Antagonist activity at P2Y12 in human platelet rich plasma assessed as inhibition of ADP-induced CD62P expression at 10 uM pretreated for 30 mins followed by ADP addition measured after 5 mins by flow cytometric analysis. Type of data set: functional. In general terms: A flow cytometer gives signals particle by particle.
Sequence of P2Y purinoceptor 12 (Homo sapiens) (Q9H244 whole entry): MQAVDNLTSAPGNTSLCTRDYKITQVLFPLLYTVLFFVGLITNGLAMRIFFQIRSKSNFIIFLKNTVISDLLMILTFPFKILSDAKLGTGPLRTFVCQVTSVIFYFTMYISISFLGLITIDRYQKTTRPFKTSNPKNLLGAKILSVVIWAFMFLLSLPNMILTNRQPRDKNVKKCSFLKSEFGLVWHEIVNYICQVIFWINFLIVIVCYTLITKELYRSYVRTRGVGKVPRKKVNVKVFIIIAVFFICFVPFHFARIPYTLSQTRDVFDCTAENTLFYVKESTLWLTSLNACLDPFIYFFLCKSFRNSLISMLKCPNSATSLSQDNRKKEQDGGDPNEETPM

Data set [2] shares this target. Description: Antagonist activity at P2Y12 in human platelet rich plasma assessed as inhibition of ADP-induced PAC1 expression at 10 uM pretreated for 30 mins followed by ADP addition measured after 5 mins by flow cytometric analysis. In kind it is functional.
For data set [3] the target is unchanged. The experiment in a line: Antagonist activity at P2Y12 in human platelet rich plasma assessed as inhibition of ADP-induced platelet aggregation at 10 uM pretreated for 30 mins followed by ADP addition measured after 5 mins by light transmission aggregometric analysis. In kind it is functional.
The target is the same in data set [4]. The experiment in a line: Antagonist activity at P2Y12 in human platelet rich plasma assessed as inhibition of collagen-induced platelet aggregation at 10 uM pretreated for 30 mins followed by collagen addition measured after 5 mins by light transmission aggregometric analysis. In kind it is functional.
Data set [5] has the same target. The experiment in a line: Antagonist activity at P2Y12 in human whole blood assessed as inhibition of ADP-induced platelet-aggregation at 10 uM pretreated for 30 mins followed by ADP addition measured after 5 mins by FITC staining-based flow cytometric analysis. Type of data set: functional.
The target is the same in data set [6]. The experiment in a line: Synergistic inhibition of P2Y12 in human platelet rich plasma assessed as inhibition of ADP-induced platelet aggregation at 10 uM pretreated for 30 mins followed by ADP addition measured after 5 mins in presence of aspirin by light transmission aggregometric analysis. In kind it is functional.
In data set [7] the test system is Platelet. The experiment in a line: Cytotoxicity against platelet in human platelet rich plasma at 100 uM after 48 to 72 hrs. Type of data set: cell-based.

Take `Nc1c(C(=O)Nc2ccccc2Cl)sc2nc3c(cc12)C(=O)CCC3`: the inhibition entry in data set [1], in data set [2], in data set [3], in data set [4], in data set [5] and in data set [6] was “Active” each time. In data set [7], the Activity entry is “Non-Toxic”.
Turning to `Cc1c(Cl)cccc1NC(=O)c1sc2nc3c(cc2c1N)CCCCC3`, the inhibition result in data set [1], in data set [2], in data set [3], in data set [4], in data set [5] and in data set [6] was “Active” each time. Further, in data set [7], the Activity result is reported as “Non-Toxic”.
Turning to `Nc1c(C(=O)Nc2ccccc2)sc2nc3c(cc12)CCCCCC3`, the inhibition result in data set [1], in data set [2], in data set [3], in data set [4], in data set [5] and in data set [6] was “Active” each time. Besides, in data set [7], the Activity entry was “Non-Toxic”.
In the case of `CC(=O)Oc1ccccc1C(=O)O`, the inhibition entry in data set [3] was “Active”.
As to `COC(=O)[C@H](c1ccccc1Cl)N1CCc2sccc2C1`, the inhibition entry in data set [3] and in data set [5] was “Active” in each case. In addition, the inhibition entry in data set [4] is “inactive”.
On to `COc1ccc(NC(=O)c2sc3nc4c(cc3c2N)CCCCCC4)cc1`, for which the inhibition result in data set [1], in data set [2], in data set [3], in data set [4] and in data set [5] was “Active” each time. In data set [6], the inhibition entry is “inactive”. Moreover, the Activity result in data set [7] is reported as “Non-Toxic”.
Take `Nc1c(C(=O)Nc2cccc(Cl)c2)sc2nc3c(cc12)C(=O)CCC3`: the inhibition entry in data set [1], in data set [2], in data set [3], in data set [4], in data set [5] and in data set [6] was “Active” in each case. Besides, the Activity entry in data set [7] is reported as “Non-Toxic”.
`Cc1c(Br)cccc1NC(=O)c1sc2nc3c(cc2c1N)CCCCCC3`: the inhibition result in data set [1], in data set [2], in data set [3], in data set [4] and in data set [5] was “Active” throughout. Moreover, in data set [6], the inhibition result was “inactive”. For the same compound, the Activity result in data set [7] was “Non-Toxic”.
